One assay relates to C. elegans. Briefly: Optogenetic silencing of ASG during conditioning or navigation of a 0-50 mM NaCl gradient. Conditions: ATR, single replicates. Type of assay: in vivo. The text has this: From left to right n = 51, 59, 43, 44 animals per condition. […] (bottom panel). Scale bar, 20 µm. f Optogenetic silencing of ASG. Individual worms are illuminated with yellow–green light for silencing CAPA-1 neurons during conditioning (acquisition phase) or during the NaCl chemotaxis assay when worms are navigating a linear NaCl gradient (retrieval phase) (see Methods for details). Arch requires supplementation of the cofactor all-trans retinal (ATR) to the worm culture. Transgenic C. elegans not fed ATR-supplemented food serve as a negative control. After conditioning, worms are put in the middle of a chemotaxis plate with a linear NaCl gradient (0–50 mM) and kept in the field-of-view using an automated xy-stage. […] Corresponding biased random walk and klinotaxis indices shown in Supplementary Fig. 10a, b. The time interval for statistical comparison was reduced to 5 min to accommodate the small plate format. g, h From left to right n = 10, 12, 14, 14, 12, 12, 14, 11 animals per condition. Shaded regions on a and g represent S.E.M. while black bars indicate the time interval for calculating the mean gradient position and behavioral indices. Significances determined by two-way ANOVA with Tukey’s HSD post hoc test. n.s. not significant; *p ≤ 0.05; **p ≤ 0.01; ***p ≤ 0.001. Boxplots show medians, 25th and 75th percentiles as box limits. The whiskers extend to the most extreme data points not considered as outlier.
Transgenic worms expressing the outward-directed proton pump Arch in ASG were cultured at 25 °C on culture plates seeded with sufficient OP50 E. coli. One day before the assay, transgenic worms were transferred to OP50 culture plates to which all-trans retinal (ATR, Sigma Aldrich) has been added (300 µM final concentration in fresh OP50 liquid culture). This cofactor is needed for Arch activity, and allows transgenic worms transferred to culture plates without ATR to serve as negative control. A 0 to 50 mM linear gradient was generated in a 55 mm Petri plate. First, 15 mL buffered CTX agar supplemented with 50 mM NaCl was poured in a 55 mm diameter Petri dish elevated to one side. An additional 15.5 mL buffered CTX agar without NaCl was poured on top of the first triangular wedge once it solidified. NaCl was allowed to diffuse at least 24 h prior the assay. Individual worms were washed for 15 min in a small volume of CTX buffer with or without 100 mM NaCl (NaCl-conditioning or mock-conditioning). After conditioning the worm was transferred to the center of the 0 to 50 mM NaCl gradient plate, mounted on a Zeiss AxioObserver Z1 microscope. The animal was then allowed to navigate the plate for 10 min while an automated xy-stage kept it in the field-of-view. […] Each animal’s path was reconstructed based on the recorded low-resolution video-stream and the logged stage positions. The behavior was then segmented and indices reflecting chemotaxis behavior were calculated as described above.
Supplementary Fig. 10. Behavioral effects of silencing CAPA-1 neurons (related to Fig. 7) The inhibitory opsin Arch is expressed in ASG under control of the capa-1 promoter. Individual transgenic worms are illuminated with yellow-green light for ASG silencing while being conditioned, or when they are navigating an agar plates with a 0 to 50 mM NaCl linear gradient (a-b) or no gradient (c-d). Arch requires the cofactor all-trans retinal (ATR) to be supplemented to the worm culture.
Transgenic C. elegans not fed ATR-supplemented food serve as a negative control. See Methods for details. (a) Biased random walk and (b) klinotaxis indices for mock- and NaCl-conditioned animals navigating a 0 to 50 mM NaCl gradient. (a-b) From left to right n = 10, 12, 14, 14, 12, 12, 14, 11 animals per condition. (c) Mean speed of individual worms and (d) the fraction of time in each behavioral state when worms are navigating a plate without NaCl. From left to right n = 7, 7, 7, 7, 7, 7, 5, 7 animals per

For the next assay, the target named is T1, NMUR-1 (Caenorhabditis elegans, UniProt Q18701).
T1 sequence (Q18701 1-400): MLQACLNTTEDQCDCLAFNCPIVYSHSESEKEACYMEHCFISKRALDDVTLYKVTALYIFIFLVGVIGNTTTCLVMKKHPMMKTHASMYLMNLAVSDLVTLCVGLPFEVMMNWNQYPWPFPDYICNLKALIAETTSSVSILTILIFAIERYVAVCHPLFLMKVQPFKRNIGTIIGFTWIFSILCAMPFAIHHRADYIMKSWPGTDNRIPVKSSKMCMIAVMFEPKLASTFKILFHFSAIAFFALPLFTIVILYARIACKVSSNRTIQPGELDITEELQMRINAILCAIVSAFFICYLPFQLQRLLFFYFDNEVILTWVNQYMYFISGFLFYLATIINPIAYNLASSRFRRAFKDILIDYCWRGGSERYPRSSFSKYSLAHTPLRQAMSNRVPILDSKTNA
Nature of the assay: Luminescence-based (aequorin) calcium mobilization assay for GPCR activation, NMUR-1 expressed in CHO cells. Type of assay: cell-based. Conditions: calcium response, aequorin luminescence 496 nm, 30 s, CHO K1 cells stably overexpressing apo-aequorin and human Gα16, transiently transfected nmur-1/pcDNA3.1, 0.1 nM to 100 µM, HPLC-purified peptides, read-out: EC50 (half maximal effective concentration) to activate NMUR-1. The text has this:
Cells transfected with an empty pcDNA3.1 vector are used as a control. Error bars show S.E.M. CAPA-1-1 n = 6; CAPA-1-2 n = 6; CAPA-1-3 n = 5 experimental repeats. c The […] encodes a neuropeptide precursor that harbors three predicted peptide sequences (CAPA-1-1, -2, and -3), which are flanked by mono- and dibasic cleaving sites. Black bars indicate the positions of deletions in […]-44 mutant alleles used in this study. d Sequence comparison of C. elegans CAPA-1 neuropeptides and NmU neuropeptides from H. sapiens, D. rerio, and D. melanogaster. Conserved C-terminal features are highlighted in black. Residues with similar physicochemical properties are colored gray.

[1] abbreviates: NaCl-conditioned, Time Window Silencing: Navi - Retrieval.
Setting [2] is: NaCl-conditioned, Time Window Silencing: Wash - conditioning.
Setting [3] is: mock-conditioned, Time Window Silencing: Navi - Retrieval.
[4] abbreviates: mock-conditioned, Time Window Silencing: Wash - conditioning.
Setting [5] is: CAPA-1-1 n = 6, CAPA-1-3 n = 5 experimental repeats.

“And” between values parts separate entries of the source, which are not always exact repeats. Identical values can stand only once. Like-named read-outs stand apart in the source and are kept apart here. No end group written: not given here.

Take `CC1=C(/C=C/C(C)=C/C=C/C(C)=C/C=O)C(C)(C)CCC1` [ATR]: the “Fraction of time in Pause” value with C. elegans (setting [1]), with C. elegans (setting [2]), in the assay on C. elegans (setting [3]) and with C. elegans (setting [4]) was 0 each time. For the same molecule, the “Fraction of time in Run” value in the assay on C. elegans (setting [1]) was 0.741 and 0.8212 and 0.8921 and 0.8348 and 0.9414 and 0.927 and 0.8623; with C. elegans (setting [2]), 0.7451 and 0.7688 and 0.9609 and 0.8359 and 0.888 and 0.9702 and 0.8828; in the assay with C. elegans (setting [3]) it was 0.7564 and 0.7081 and 0.7595 and 0.8171 and 0.6516 and 0.7513 and 0.7264; in the assay on C. elegans (setting [4]) it was 0.6208 and 0.8756 and 0.9106 and 0.3384 and 0.8016 and 0.8068 and 0.9085. Further, the “Fraction of time in Turn” value in the assay with C. elegans (setting [1]) was 0.1151 and 0.03803 and 0.0668 and 0.04464 and 0.02467 and 0.01439; with C. elegans (setting [2]), 0.09866 and 0.04111 and 0.01747 and 0 and 0.005139 and 0.0298 and 0.06372; in the assay on C. elegans (setting [3]), 0.111 and 0.1007 and 0.1285 and 0.03905 and 0.1665 and 0.03083 and 0.0965; in the assay on C. elegans (setting [4]), 0.05755 and 0.09147 and 0.08941 and 0 and 0.09044 and 0.01439 and 0.0483. Further, the “Fraction of time in Pirouette” value is 0.1562 and 0.1901 and 0.02158 and 0.1641 and 0.1069 and 0 and 0.05344 in the assay with C. elegans (setting [2]); 0.1439 and 0.1408 and 0.04111 and 0.1205 and 0.03392 and 0.0483 and 0.1233 in the assay on C. elegans (NaCl, Time Window Silencing: Navi - Retrieval); 0.1326 and 0.1912 and 0.112 and 0.1439 and 0.1819 and 0.2179 and 0.1771 in the assay on C. elegans (setting [3]); 0.3217 and 0.03289 and 0 and 0.6616 and 0.1079 and 0.1788 and 0.04317 in the assay on C. elegans (setting [4]).
As to AFFYTPRI-NH2 [CAPA-1-3], the EC50 at NMUR-1 (setting [5]) stood at 142 nM.
For the molecule APHPSSALLVPYPRV-NH2 [CAPA-1-1], the EC50 at NMUR-1 (setting [5]) came to 6 nM.
Regarding LYMARV-NH2 [CAPA-1-2], the EC50 at NMUR-1 (CAPA-1-2 n = 6 experimental repeats) stood at 8000 nM.

(Values after publication PMC7190830, “Neuromedin U signaling regulates retrieval of learned salt avoidance in a C. elegans gustatory circuit” (Nature Communications, 2020).)
